Several values for one entry are separate records, joined by “and”; a condition that tells them apart may be missing. Equal entries are not always repeated. Where two headings read alike, the source gives them in different places.
Assays:
[1] = test system: HL-60 human promyelocytic leukemia cells; assay: MTT cytotoxicity assay, HL-60 cells; type: cell-based; conditions: Homo sapiens, HL-60, HL-60, 10 000 b/j, MTT, read-out: IC50 měřené
Protocol: For cytotoxicity experiments, cancer cells were seeded at a density of 5,000 (MCF-7), 10,000 (HL-60) or 2,000 cells/well (HCT116 and A549) in 96-well plates (TPP) for 24 h/37°C prior to the addition of examined agents. The non-cancerous cells, 3T3 and H9c2 cells, were cultured for 24 h/37°C in 96-well plates at a density of 10,000 cells/well, the medium was then changed to serum- and pyruvate-free DMEM (Sigma-Aldrich) and incubated with the cells for another 24 h/37°C. The cytotoxic effects of Bp4eT and its metabolites were studied at different concentrations after a 72 h/37°C incubation. In order to aid the dissolution of the lipophilic ligands, 0.1% dimethyl sulfoxide (v/v) (DMSO; Sigma-Aldrich) was present in the culture medium of all groups. At this concentration, DMSO had no effect on cellular proliferation or viability.
The viability of cells were determined using an MTT assay (Sigma-Aldrich) according to previously established methods. The optical density of soluble MTT was measured at λ = 570 nm, subtracting the λ = 690 nm background using a Tecan Infinite 200M plate reader (Tecan Group, Männedorf, Switzerland). The viability or proliferation of experimental groups was expressed as a percentage of the untreated controls (100%).
SigmaStat for Windows 3.5 (Systat Software, San Jose, CA, USA) statistical software package was utilized to analyze results. The data are expressed as the mean ± SD of a given number of experiments. Statistical significance was determined using a one-way ANOVA with a Bonferroni post-hoc test or Student’s t-test. The results were considered to be statistically significant when p < 0.05. The IC50 values were calculated using CalcuSyn 2.0 software (Biosoft, Cambridge, UK). Cell cycle analysis was evaluated using MultiCycle AV Software (Phoenix Flow Systems, San Diego, CA, USA).

[2] = test system: caspases 3/7; assay: Caspase activity, luminescent kit, caspases 3/7; type: cell-based, human; conditions: for kaspáza (3) a 7, průměry (means of raw signal): mean of 4 experiments; for kaspáza (3) a 7, raw signal / kaspáza (3) a 7, signal / viabilita: individual experiments by date
Protocol: To assess the effect of the compounds on caspase activity, MCF-7 cells were incubated with 100 nM Bp4eT or its metabolites for 3, 24 or 72 h/37°C in 96-well plates, as described above. The cells were then lysed by adding 100 μL of cold lysis buffer (100 mM HEPES, 10 mM CHAPS, 10 mM D-L-dithiothreitol, pH 7.4) to 100 μL of medium in each well. Lysates were immediately frozen at -80°C. Thawed lysates were used to assess caspase activity using luminescent kits for caspases 3/7, 8 and 9 (Promega, Madison, WI, USA). The luminescence was measured using the Tecan Infinite 200M plate reader. Caspase activity in the experimental groups was corrected according to the cellular viability of each group and expressed as a percentage of activity of the untreated control (100%).

[3] = test system: labile iron pool of MCF-7 cells; assay: Calcein-AM assay, access to the labile iron pool; type: cell-based, human; set-up: Calcein fluorescence: unit not given here; conditions: 10 μM
Summary of the method: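 MCF-7 cells iron-loaded with ferric ammonium citrate (530 μg/mL) for 24 h, then loaded with 2 μM calcein-AM for 30 min at 37°C in ADS buffer, pH 7.4. Calcein fluorescence dequenching (ex 488/em 530 nm) followed for 10 min after adding 10 μM compound; efficacy expressed as percentage of Bp4eT (100%).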

In the case of `CCNC(=S)NN=C(c1ccccc1)c1ccccn1` [Bp4eT, 2-benzoylpyridine 4-ethyl-3-thiosemicarbazone], the IC50 ([1]; průměr (mean)) is reported as 3.48 nM, the IC50 ([1]; single experiment (date)) is reported as 3.35 nM and the “Activation of caspases 7, 8 and 9” value ([2]; 100 nM, 3 h, MCF-7, statement covers caspases 7, 8 and 9) is reported as “did not activate any of the caspases”. The “Caspase 7 activity, % of the control” value ([2]; 100 nM, 24 h, MCF-7, corrected for viability) was 203%, the “Caspase 7 activity, % of control” value ([2]; 100 nM, 72 h, MCF-7, corrected for viability) was 318% and the “kaspáza (3) a 7, % kontroly” value ([2]; 3 hodiny (3 h), % of control) was 96.83%. For the same compound, the “kaspáza (3) a 7, průměry (means of raw signal)” value (“kaspáza (3) a 7, průměry” for short) ([2]; 3 hodiny (3 h)) was 1616.38, the “kaspáza (3) a 7, raw signal” value ([2]; 3 hodiny) was 1828 and 1581 and 1679 and 1377.5 and the “kaspáza (3) a 7, raw signal, průměry” value ([2]; 3 hodiny, mean) was 1616.38. For the same compound, the “kaspáza (3) a 7, % kontroly” value ([2]; 3 hodiny, mean, normalised to viability) was 101.92 % kontroly, the “kaspáza (3) a 7, signal / viabilita” value ([2]; 3 hodiny, normalised to viability) was 18.975 and 16.4111 and 17.4284 and 14.2987 and the “kaspáza (3) a 7, signal / viabilita, průměry” value ([2]; 3 hodiny, normalised to viability, mean) was 16.7783. For the same compound, the “kaspáza (3) a 7, % kontroly” value ([2]; 24 hodin (24 h), % of control) was 107.61%, the “kaspáza (3) a 7, průměry” value ([2]; 24 hodin (24 h)) was 2465.5 and the “kaspáza (3) a 7, raw signal” value ([2]; 24 hodin) was 2823.5 and 2154.5 and 2683 and 2201. The “kaspáza (3) a 7, raw signal, průměry” value ([2]; 24 hodin, mean) was 2465.5, the “kaspáza (3) a 7, % kontroly” value ([2]; 24 hodin, mean, normalised to viability) was 203.48 % kontroly and the “kaspáza (3) a 7, signal / viabilita” value ([2]; 24 hodin, normalised to viability) was 53.4249 and 40.7664 and 50.7664 and 41.6462. For the same compound, the “kaspáza (3) a 7, signal / viabilita, průměry” value ([2]; 24 hodin, normalised to viability, mean) was 46.651, the “kaspáza (3) a 7, % kontroly” value ([2]; 72 hodin (72 h), % of control) was 86.15% and the “kaspáza (3) a 7, průměry” value ([2]; 72 hodin (72 h)) was 6404.25. For the same compound, the “kaspáza (3) a 7, raw signal” value ([2]; 72 hodin) was 10190.5 and 6963 and 3947 and 4516.5, the “kaspáza (3) a 7, raw signal, průměry” value ([2]; 72 hodin, mean) was 6404.25 and the “kaspáza (3) a 7, % kontroly” value ([2]; 72 hodin, mean, normalised to viability) was 318.49 % kontroly. For the same compound, the “kaspáza (3) a 7, signal / viabilita” value ([2]; 72 hodin, normalised to viability) was 376.172 and 257.032 and 145.7 and 166.722, the “kaspáza (3) a 7, signal / viabilita, průměry” value ([2]; 72 hodin, normalised to viability, mean) was 236.406 and the Calcein fluorescence ([3]; 30 sec, mean (průměr)) was 27.822. For the same compound, the Calcein fluorescence ([3]; 60 sec, mean (průměr)) was 40.360, the Calcein fluorescence ([3]; 90 sec, mean (průměr)) was 65.393 and the Calcein fluorescence ([3]; 120 sec, mean (průměr)) was 66.572. For the same compound, the Calcein fluorescence ([3]; 300 sec, mean (průměr)) was 146.135, the Calcein fluorescence ([3]; 300 sec, single experiments) was 168.950 and 158.308 and 180.958 and 116.900 and 150.183 and 101.508 and the Calcein fluorescence ([3]; 600 sec, mean (průměr)) was 220.551. For the same compound, the Calcein fluorescence ([3]; 600 sec, single experiments) was 239.975 and 219.283 and 288.833 and 220.450 and 195.583 and 159.183, the “Chelation efficacy: fluorescence of free calcein at t = 600 s as percentage of Bp4eT” value ([3]; MCF-7, mean of 6 experiments) was 100% and the “Fluorescence of free calcein at 600 s as percentage of Bp4eT” value ([3]; MCF-7, single experiments) was 108.807% and 99.4251% and 130.96% and 99.954% and 88.6793% and 72.1752%.
